Data set [1] is described as follows: Pharmacokinetic test in rats. In kind it is in vivo, SD rats. As to conditions: for AUC / clearance / Vd: male, SD, rat, plasma; for Vd: read-out: Vdss. On the procedure:
1.1 Experimental animals: male SD rats, about 220 g, 6-8 weeks old, 6 rats/compound. Purchased from Chengdu Ddossy Experimental Animals Co., Ltd.
1.2 Experimental design: on the day of the experiment, 36 SD rats were randomly grouped according to their body weights. The animals were fasted with water available for 12 to 14 h one day before the administration and were fed 4 h after the administration.
Before and after the administration, 0.15 ml of blood was taken from the orbit of the animals under isoflurane anesthesia and placed in an EDTAK2 centrifuge tube. The blood was centrifuged at 5000 rpm and 4° C. for 10 min to collect plasma. The blood collection time points for the intravenous administration group and intragastric administration group were: 0, 5 min, 15 min, 30 min, 1 h, 2 h, 4 h, 6 h, 8 h and 24 h. Before analysis and detection, all samples were stored at −80° C., and a quantitative analysis of samples was performed using LC-MS/MS.

A further data set concerns the target T1, CCR4 (Homo sapiens, UniProt P51679).
T1 construct: expressed in transfected cells; host or cells: HEK293
T1 sequence (P51679 1-360): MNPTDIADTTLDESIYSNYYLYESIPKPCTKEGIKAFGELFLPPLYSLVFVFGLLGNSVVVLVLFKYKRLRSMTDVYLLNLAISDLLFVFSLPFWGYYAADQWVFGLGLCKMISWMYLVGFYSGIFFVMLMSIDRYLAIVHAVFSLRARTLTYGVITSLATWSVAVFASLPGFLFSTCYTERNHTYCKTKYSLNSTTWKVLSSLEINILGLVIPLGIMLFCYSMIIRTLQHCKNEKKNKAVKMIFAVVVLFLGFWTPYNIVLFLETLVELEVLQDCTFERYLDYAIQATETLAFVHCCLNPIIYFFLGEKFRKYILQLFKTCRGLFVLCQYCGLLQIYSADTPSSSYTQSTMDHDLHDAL
Description: Calcium flow detected by FLIPR. As to conditions: CCR4/HEK293 cells, agonist CCL17, Fluo-4 calcium signal. It counts as cell-based. On the procedure:
CCR4/HEK293 cells were added to a 384-well cell culture plate (Greiner #781946) at a rate of 20 μL/well (20,000 cells/well) and incubated overnight in a 37° C., 5% CO2 incubator (Incubator, Thermo). On the second day, the 384-well cell culture plate was taken out of the incubator and the culture medium was removed; Then, 20 μL of detection buffer and 20 μL of 2X Fluo-4 Direct™ (Invitrogen, Cat #F10471) were added. Then, compounds were added at 10 μL/well (compounds were subjected to 4-fold serial dilution, and the highest detection concentration was 10 μM), and the cells were incubated in a 37° C., 5% CO2 incubator for 50 min, and then incubated at room temperature for 10 min. The 384-well culture plate was placed in FLIPR ([…]), 10 μL of 6X agonist CCL17 was added by using an automatic loader, and the fluorescence signal was read immediately. The mean and standard error (Mean±SEM) were statistically analyzed using Graphpad Prism software, and the IC50 value was calculated.
The experimental results are shown in Table 3, where A represents IC50<100 nm; B represents 100 nM≤IC50<500 nM, and C represents 500 nM≤IC50.

Data set [2] can be described thus: Pharmacokinetic test in mice. The following applies: for AUC(0-t) / clearance / Vd: male, C57, mouse, plasma; for Vd: read-out: Vdss. In kind it is in vivo, C57 mice. On the procedure:
1.1 Experimental animals: Male C57 mice, 20-25 g, 6 mice/compound. Purchased from Chengdu Ddossy Experimental Animals Co., Ltd.
1.2 Experimental design: On the day of the experiment, 24 C57 mice were randomly grouped according to their body weight. The animals were fasted with water available for 12 to 14 h one day before the administration and were fed 4 h after the administration.
Before and after the administration, 0.06 mL of blood was taken from the orbit of the animals under isoflurane anesthesia and placed in an EDTAK2 centrifuge tube. The blood was centrifuged at 5000 rpm and 4° C. for 10 min to collect plasma. The blood collection time points for the intravenous group and intragastric administration group were: 0 min, 5 min, 15 min, 30 min, 1 h, 2 h, 4 h, 7 h and 24 h. Before analysis and detection, all samples were stored at −80° C., and a quantitative analysis of samples was performed using LC-MS/MS.

By AUC is commonly meant concentration integrated over time. The clearance is the volume of plasma or blood freed of the substance per unit of time. By IC50 is commonly meant the concentration at which inhibition is half-maximal. As usually defined, the AUC(0-t) is the area under the concentration-time curve up to a stated or last time point. Lower therefore signals low exposure.

`Cc1nc(N2CC3C(C2)C3C2CN(C3CC(C)(C(=O)O)C3)CCO2)nc(NC(C)c2ccc(Cl)cc2Cl)c1Cl` (single isomer, unassigned) [Compound 78 isomer 3]: the F in data set [1] (i.g. 10 mg/kg) is on record as above 98%. Besides, in data set [1] (iv, i.v. 2.5 mg/kg), the AUC was found to be 4560 ± 638 ng·h/mL, the clearance was 9.22 ± 1.2 mL/min/kg and the Vd is 2.07 ± 0.28 L/kg. Moreover, the AUC in data set [1] (po, i.g. 10 mg/kg) stood at 28400 ± 7070 ng·h/mL. Further, at CCR4, the IC50 is below 100 nM.
As to `Cc1nc(N2CCC(C3CN(CCC(=O)O)CCO3)CC2)nc(NC(C)c2ccc(Cl)cc2Cl)c1Cl` (single isomer, unassigned) [Compound 76 isomer 2], on CCR4, the IC50 was below 100 nM. Also, the F in data set [2] (i.g. 10 mg/kg) was determined as 123 ± 14%. Also, in data set [2] (iv, i.v. 2.5 mg/kg), the AUC(0-t) amounted to 1790 ± 125 ng·h/mL, the clearance is 23.1 ± 1.7 mL/min/kg and the Vd was determined as 1.44 ± 0.12 L/kg. Also, the AUC(0-t) in data set [2] (po, i.g. 10 mg/kg) was 8840 ± 1010 ng·h/mL.
`Cc1nc(N[C@H](C)c2ccc(Cl)cc2Cl)nc(N2CC([C@H]3CCCN([C@H]4C[C@](C)(C(=O)O)C4)C3)C2)n1` [Compound 17]: the IC50 on CCR4 was below 100 nM.
On the same count and under the same terms, next, `CC(Nc1nc(N2CC(C3CN(C4CC(C)(C(=O)O)C4)CCO3)C2)ncc1Br)c1ccc(Cl)cc1Cl` (single isomer, unassigned) [Compound 37 isomer 1]: below 100 nM; `Cc1nc(N2CC([C@@H]3CN(CCO)CCO3)C2)nc(N[C@H](C)c2ccc(Cl)cc2Cl)c1Cl` [Compound 31]: below 100 nM; `Cc1nc(N2CC(C3CN(C4CC(C)(C(=O)O)C4)CCN3C)C2)nc(NC(C)c2ccc(Cl)cc2Cl)c1Cl` (single isomer, unassigned) [Compound 81 isomer 1]: 100 to 500 nM.
Turning to `Cc1nc(N2CC(C3CCCN(C4CC(C)(C(=O)O)C4)C3)C2)nc(NC(C)c2cc(Cl)sc2Cl)c1Cl` (single isomer, unassigned) [Compound 10 isomer 1], the IC50 at CCR4 lay within 100 to 500 nM.
On to `C#Cc1ccc(C(C)Nc2nc(N3CC([C@H]4CCCN(CCO)C4)C3)nc(C)c2Cl)c(Cl)c1` (stereo partly drawn) [Compound 38], for which the IC50 at CCR4 was in the range of 100 to 500 nM.
Same read-out and setting: next, `C[C@@H](Nc1nc2c(c(N3CC([C@H]4CCCN([C@H]5C[C@](C)(C(=O)O)C5)C4)C3)n1)COC2)c1ccc(Cl)cc1Cl` [Compound 45]: 100 to 500 nM.
For `C[C@@H](Nc1nc(N2CC(C3CN(C4CC(C)(C(=O)O)C4)CCO3)C2)nc(C(F)F)c1Cl)c1ccc(Cl)cc1Cl` (single isomer, unassigned) [Compound 77 isomer 2], the IC50 on CCR4 was below 100 nM.
The same measure, in the same setting: next, `C[C@@H](Nc1nc(N2CC([C@H]3CCCN([C@H]4C[C@](C)(C(=O)O)C4)C3)C2)c2ccccc2n1)c1ccc(Cl)cc1Cl` [Compound 40]: below 100 nM.
As for `Cc1nc(N2CC(C3CN(C4CC(C)(C#N)C4)CCO3)C2)nc(N[C@H](C)c2ccc(Cl)cc2Cl)c1Cl` (stereo partly drawn) [Compound 70], at CCR4, the 50% inhibitory concentration (IC50) fell in the range of 100 to 500 nM.
Same read-out and setting: next, `Cc1nc(C2CN(C3CCCN(C4CC(C)(C(=O)O)C4)C3)C2)nc(NC(C)c2ccc(Cl)cc2Cl)c1Cl` (single isomer, unassigned) [Compound 20 isomer 3]: below 100 nM; `CC(Nc1nc(N2CC(C3C=CCN(C4CC(C)(C(=O)O)C4)C3)C2)nc(C(F)F)c1Cl)c1ccc(Cl)cc1Cl` (single isomer, unassigned) [Compound 85 isomer 1]: below 100 nM.
In the case of `CC(Nc1cc(C#CC2CCCN(C3CC(C)(C(=O)O)C3)C2)ccc1Cl)c1ccc(Cl)cc1Cl` (single isomer, unassigned) [Compound 75 isomer 2], at CCR4, the IC50 was in the range of 100 to 500 nM.
Same read-out and setting: next, `C[C@@H](Nc1nc2c(c(N3CC(C4CN(C5CC(C)(C(=O)O)C5)CCO4)C3)n1)CN(C)C2)c1ccc(Cl)cc1Cl` (single isomer, unassigned) [Compound 68 isomer 1]: 100 to 500 nM; `Cc1cc(N2CC([C@H]3CCCN([C@H]4C[C@](C)(C(=O)O)C4)C3)C2)nc(N[C@H](C)c2ccc(Cl)cc2Cl)n1` [Compound 12]: below 100 nM.
Same read-out and setting: next, `C[C@@H](Nc1cc(N2CC([C@H]3CCCN([C@H]4C[C@](C)(C(=O)O)C4)C3)C2)n2nccc2n1)c1ccc(Cl)cc1Cl` [Compound 25]: below 100 nM; `Cc1nc(N2CC(C3CN(CCO)CCN3C)C2)nc(NC(C)c2ccc(Cl)cc2Cl)c1Cl` (single isomer, unassigned) [Compound 80 isomer 1]: below 100 nM.
Take `Cc1nc(N2CC(F)(C3CN(C4CC(C)(C(=O)O)C4)CCO3)C2)nc(N[C@H](C)c2ccc(Cl)cc2Cl)c1Cl` (single isomer, unassigned) [Compound 64 isomer 3]: the F in data set [1] (i.g. 10 mg/kg) came to 108 ± 21%; in data set [2] (i.g. 10 mg/kg), 118 ± 4.5%. For the same compound, the exposure (AUC) came out at 6020 ± 1390 ng·h/mL in data set [1] (iv, i.v. 2.5 mg/kg) and 26100 ± 5150 ng·h/mL in data set [1] (po, i.g. 10 mg/kg). For the same compound, the clearance in data set [1] (iv, i.v. 2.5 mg/kg) came to 6.85 ± 1.2 mL/min/kg; in data set [2] (iv, i.v. 2.5 mg/kg) it was 9.26 ± 0.73 mL/min/kg. Further, the Vd amounted to 1.38 ± 0.25 L/kg in data set [1] (iv, i.v. 2.5 mg/kg) and 1.94 ± 0.053 L/kg in data set [2] (iv, i.v. 2.5 mg/kg). For the same compound, at CCR4, the half-maximal inhibitory concentration (IC50) was below 100 nM. The area under the curve AUC(0-t) was 4490 ± 361 ng·h/mL in data set [2] (iv, i.v. 2.5 mg/kg) and 21200 ± 815 ng·h/mL in data set [2] (po, i.g. 10 mg/kg).
On to `Cc1nc(N2CC(C3CN(CC(C)(C)O)CCO3)C2)nc(N[C@H](C)c2ccc(Cl)cc2Cl)c1Cl` (stereo partly drawn) [Compound 35], for which, on CCR4, the IC50 was below 100 nM.
Still for that read-out and setting: next, `C[C@@H](Nc1cc(N2CCC(C3CN(CCO)CCO3)CC2)nc2ccnn12)c1ccc(Cl)cc1Cl` (stereo partly drawn) [Compound 112]: below 100 nM.
The same measure, in the same setting: next, `Cc1nc(N2CC(F)(C3CN(CCC(=O)O)CCO3)C2)nc(N[C@H](C)c2ccc(Cl)cc2Cl)c1Cl` (stereo partly drawn) [Compound 88]: below 100 nM.
In the case of `CC(Nc1nc(N2CC(F)(C3CN(C4CC(C)(C(=O)O)C4)CCO3)C2)nc(C(F)(F)F)c1Cl)c1ccc(Cl)cc1Cl` (single isomer, unassigned) [Compound 65 isomer 3], the IC50 at CCR4 fell in the range of 100 to 500 nM.
The same measure, in the same setting: next, `C[C@@H](Nc1cc(N2CC([C@H]3CCCN(CCO)C3)C2)nc2ccnn12)c1ccc(Cl)cc1Cl` [Compound 24]: below 100 nM; `C#Cc1ccc(C(C)Nc2nc(N3CC(C4CN(C5CC(C)(C(=O)O)C5)CCO4)C3)nc(C)c2Cl)c(Cl)c1` (single isomer, unassigned) [Compound 28 isomer 1]: below 100 nM.
On to `CC(Nc1nc(N2CC(C3CN(C4CC(C)(C(=O)O)C4)CCO3)C2)c2ccccc2n1)c1ccc(Cl)cc1Cl` (single isomer, unassigned) [Compound 60 isomer 1], for which the IC50 at CCR4 lay in the range of 100 to 500 nM.
For the compound `C[C@@H](Nc1nc(N2CC(C3CN(C4CC(C)(C(=O)O)C4)CCO3)C2)nc2ccsc12)c1ccc(Cl)cc1Cl` (single isomer, unassigned) [Compound 54 isomer 1], on CCR4, the half-maximal inhibitory concentration (IC50) is 100 to 500 nM.

Source of the values: patent US20250340532A1, “HETEROCYCLIC COMPOUND CCR4 INHIBITOR AND USER THEREOF” (Xizang Haisco Pharmaceutical Co., Ltd., priority 2022, published 2025).
